# Results from US8007779B2, “Nucleic acid constructs and cells, and methods utilizing same for modifying the electrophysiological function of excitable tissues” (GeneGrafts Ltd., priority 2000, dated 2011).
# Where “and” joins values, the source holds several entries; their conditions need not be identical. Equal entries are not always repeated. Entries after “also recorded” stand apart in the source; their conditions may differ.
# What was measured:
# [1] = test system: cultured neuronal network; experiment: Spiking activity of cultured cortical neuronal network on multi-electrode array (MEA); assay type: cell-based, rat; conditions: 5 μM bicuculin, 10 μM DNQX or 20 μM APV added to the culture
# Procedure: Cortical neurons were obtained from newborn rats within 24 hours from birth, following standard harvesting procedures (Culturing nerve cells, 2nd edition, Gary Ranker and Kimberly Goslin, 1998). The cortex tissue was digested enzymatically and mechanically dissociated and the neurons were plated directly onto substrate-integrated multi-electrode array (MEA) dishes prepared as described below. The cultures were bathed in MEM which was supplemented with heat-inactivated horse serum (5%), Glutamine (0.5 mM), Glucose (20 mM), and Gentamycin (10 μg/ml), and maintained in a tissue culture incubator at 37° C., 5% CO2 and 95% during the recording phases. Half of the medium was exchanged twice a week and the experiments were performed during the third week following plating, thus allowing complete maturation of the neurons (FIGS. 1a-b).
# Arrays of 60 Ti/Au/TiN electrodes, 30 μm in diameter, spaced 200 μm from each other (MultiChannelSystems (MCS), Reutlingen, Germany) were utilized in the present study. The insulation layer (silicon nitride), was pretreated with poly-L-lysine forming a good surface for network development. A commercial 60-channel amplifier (B-MEA-1060, MCS, Reutlingen, Germany) with frequency limit range of 10-3000 Hz and a gain of ×1024 was utilized for signal amplification. The amplifier was connected to MCPPlus filter amplifiers (Alpha Omega, Nazareth, Israel) for further amplification (×10 to ×20). Stimulation through the MEA was performed using a dedicated 8-channel stimulus generator (MCS, Reutlingen, Germany).
# In addition, the micro-incubation environment was arranged to support long-term recordings from MEA dishes. This was achieved by streaming a filtered, heated and humidified air/CO2 (95/5%) gas mixture, and by electrically heating the MEA platform to 37° C. Data is digitized using two 5200a/526 A/D boards (Microstar Laboratories, WA, USA).
# Following electrical functionality determination, the neuronal network cultures were incubated with various electrical conduction blockers.
# [2] = test system: cardiomyocytes co-cultured with fibroblasts (NIH 3T3) transfected with voltage gated potassium channel Kv1.3; experiment: Spontaneous activity rate of cardiomyocyte cultures and fibroblast co-cultures on MEA under CTX; assay type: cell-based, rat
# Procedure: (§1) Monolayer cultures of neonatal rat ventricular cardiomyocytes (NRVM) were prepared as previously described (Rubin et al, 1995), with some modifications. The cultures were maintained in a humidified incubator under a controlled environment of 5% CO2+95% air at 37° C.; fresh medium was replaced on alternating days.
# (§2) Fibroblasts from the NIH 3T3 cell line were transfected with an expression cassette which included a mutant voltage gated potassium channel (Kv1.3) coding sequence (GeneBank Accession number H18261) placed under the transcription control of a constitutive promoter using standard procedures. Fibroblast cultures not transfected with the channel coding sequence were produced from the NIH 3T3 cell-line.
# (§3) Once well synchronous spontaneous activity was established in the cardiomyocyte cultures, fibroblasts transfected with the Kv1.3 channel coding sequence or non-transfected fibroblasts were added to the cultures. Two different methods where used to seed the fibroblasts. In the first method, the fibroblast were suspended in trypsin for 5 minutes following which they were seeded in a diffuse pattern in the cardiomyocytic cultures (FIG. 4a). In the second method, the fibroblasts where pipetted up and down through a 5 ml pipette for 2 minutes and seeded in the cardiomyocytic cultures thus were forming clusters of fibroblasts (FIG. 4b).
# (§4) Extracellular recordings from cultured cardiomyocytes were performed on a PC-based Microelectrode Data Acquisition System (Multi Channel Systems, Reutlingen, Germany), consisting of Multi-Electrode Array (MEA), pre- and filter-amplifiers, data acquisition board, and software. The MEA consists of a 50×50 mm glass substrate, in the center of which is an embedded 0.7×0.7 or 1.4×1.4 mm matrix of 60 Titanium-nitride, gold contacts 10 or 30 μm diameter electrodes insulated with silicone nitride, with inter-electrode distance of 100 or 200 μm (there are no electrodes in the corners of the matrix). Data were recorded at 10-25 KHz with 12-bit precision. During the recording sessions, the MEA (removed from the regular incubator) was constantly perfused with a gas mixture consisting of 5% CO2+95% air. Temperature was kept at 37±0.10° C.
# Electrical activity of the cultures was recorded on day one immediately prior to seeding of the fibroblasts and then daily until the cultures died or no spontaneous activity was detected. During the daily measurements the cultures where subjected to increasing concentrations (0.1, 1, 10, 100 nM) of CTX.
# Measurement were performed during spontaneous activity from three groups of cardiomyocyte cultures: cultures without fibroblasts, cultures with NIH 3T3 fibroblasts (seeded diffusely) and cultures with transfected NIH 3T3 fibroblasts (expressing the mutant voltage gated potassium channel coding sequence).
# [3] = test system: neonatal rat (Sprague Dawley) ventricular myocytes; experiment: Spontaneous beating rate of neonatal rat ventricular myocyte/fibroblast co-cultures (MEA), with CTx; assay type: cell-based
# Excerpt: Cell co-culturing—Primary monolayer cultures of neonatal rat (Sprague Dawley) ventricular myocytes were generated as previously described [Nuss H B, Marban E, Johns D C. Overexpression of a human potassium channel suppresses cardiac hyperexcitability in rabbit ventricular myocytes. J Clin Invest. 1999; 103:889-96]. Briefly, following excision, the ventricles were minced and treated with RDB (IIBR, Ness-Ziona, Israel). Following centrifugation, dispersed cells were suspended in culture medium (Ham's F10), 5% fetal calf serum, 5% horse serum, 100 U/ml penicillin, […] streptomycin (all from Biological industries, Beit Haemek, Israel), 1 mM CaCl2 and 50 mg/100 ml bromodeoxyuridine (BrdU, Sigma). The cells were then cultured on gelatin coated (0.1%) microelectrode culture plates at a density of 1.5×10^6 cells/ml.
# Once a well synchronous spontaneous activity was established in the cardiomyocyte cultures, fibroblasts (naïve, or Kv1.3 expressing fibroblasts) were seeded in a diffuse manner into the cardiomyocytic cultures. Two groups were studied: The cultures were studied daily, and the electrophysiological properties, essentially the spontaneous beating rate of the culture, was assessed at baseline and following application of the specific Kv1.3 blocker, Charybdotoxin (CTx), at increasing dosages (1, 10, 100 nM). […]
# [4] = test system: neonatal rat ventricular cardiomyocytes (NRVM); experiment: Synchronous activity, conduction block, conduction velocity and signal amplitude of cardiomyocyte/fibroblast co-cultures on MEA; assay type: cell-based
# Procedure: as §1, §2, §3, §4
# Recorded data was filtered using cutoff frequency of 2 KHz (Fast et al, 1993). The filtered signal was then differentiated digitally to determine the Local Activation Time (LAT) at each electrode, corresponding to dF/dtmin (where F is the filtered signal) (Dolber and Spach, 1986). Color-coded activation maps were constructed by interpolating the LAT values for the sites between the electrodes, and by extrapolating the LAT values for the 4 corners of the MEA matrix. Activation maps were plotted by means of Matlab standard 2-d plotting function (pcolor) (Matlab 5.3 Mathworks Incorporated©). Conduction velocity was calculated by standard methods (Bayly et al, 1988).
# Conduction block quantification is central to evaluating conduction block development in the cell cultures, and to evaluating reversibility of the conduction block following CTX application. A conduction block was determined using the following algorithm: […]
# Electrical activity of the cultures was recorded on day one immediately prior to seeding of the fibroblasts and then daily until the cultures died or no spontaneous activity was detected. […]
# [5] = test system: left ventricular myocardium; experiment: In vivo local ventricular effective refractory period (ERP) after cell grafting, rat model; conditions: for local ventricular ERP at the site of cell transplantation after MTx: study group (Kv1.3 fibroblasts, n=10), mean±SEM (FIG. 19b)
# Procedure: Rat model—Male Sprague-Dawley rats weighing 200-250 gr were anesthetized using A Xylasine (0.5 mg/kg) and Ketamine (0.5 mg/kg) preparation [see Example 7]. The animals were then intubated and ventilated using a Harvard small-animal mechanical respirator. The chest wall was opened using a left thoracotomy and the heart was exposed. After removal of the pericardium, a total of 6×10^6 cells (either fibroblasts without transfections in the control group or fibroblast overexpressing the KV1.3 channel in the study group) were transplanted into the anterior aspect of the left ventricular wall using a 28 g needle. In order to prevent graft rejection, all animals were treated with a daily dose of cyclosporin (10 mg/kg) and methyprednisolone (2 mg/kg). The animals underwent a detailed electrophysiological study (see below) immediately before cell grafting and 7 days post-transplantation.
# In vivo electrophysiological studies—The electrophysiological study in rats included a standard ventricular pacing protocol to determine the local myocardial effective refractory period (ERP). The ERP was evaluated by applying a train of 20 stimuli at a fixed cycle-length of 200 ms (S1), followed by a single premature stimulus (S2). The S1-S2 coupling interval was gradually shortened. The ERP was determined as the shortest S1-S2 coupling interval still capable of eliciting a ventricular response. Stimuli were generated using a computer controlled STG 1004 stimulus generator with the matching MC-Stim software (both from Multi Channel Systems, Reutlingen, Germany).
# The ERP was measured at the site of cell transplantation and at remote sites, both prior to cell transplantation and seven days following cell grafting. In order to dissect the role of the overexpressed channel in altering the local myocardial electrophysiological properties, the ERP was measured also at each site following application of 9 μg/kg of Margatoxin (Alomone Labs, Jerusalem, Israel), a specific Kv 1.3 channel blocker as an intraperitoneal bolus.
# [6] = test system: right ventricular free wall; experiment: In vivo local ventricular effective refractory period (ERP) after cell grafting, swine model; set-up: species or system pig; conditions: for ventricular ERP following local application of MTx: swine, sites grafted with transfected fibroblasts, all CLs (FIG. 20b)
# Procedure: Swine model—Three domestic pigs (20-30) kg were studied. Anesthesia was induced with 5-10 ml of intravenous sodium pentothal 2.5% solution and maintained with inhaled isoflurane (2%) in oxygen. Following a right thoracotomy, each heart was exposed and a total of 6×10^6 cells were transplanted at a total of 7 different locations in the anterior free wall of the right ventricle. Cells were delivered using a 25 g needle using an injection volume of 250 μl. The sites of cell transplantation were marked with a suture. To prevent graft rejection, the animals were treated with an immunosuppressive regimen (cyclosporine, 10 mg/kg/d and methylprednisolone, 3 mg/kg/d). 7 days following cell transplantation, a second thoracotomy and a detailed epicardial electrophysiological study were performed.
# The ERP in the pigs was measured in a similar manner to that in the rats but using slower basic stimulation intervals (CLs of 350, 400 and 500 ms). The ERP was measured at the site of cell transplantation as well as in remote sites and also following local intramyocardial injection of Margatoxin at the examined sites.
molecule,measurement,setting,value
CN1CCc2cc3c(cc2[C@H]1[C@@H]1OC(=O)c2c1ccc1c2OCO1)OCO3 [bicuculin],spiking activity in cultured neuronal network,[1],completely abolished
O=[N+]([O-])c1cc2nc(O)c(O)nc2cc1[N+](=O)[O-] [DNQX],spiking activity in cultured neuronal network,[1],completely abolished
Charybdotoxin (QFTNVSCTTSKECWSVCQRLHNTSRGKCMNKKCRCYS) [CTX],increase in spontaneous activity rate,"[2]; CTX 10 nM, cardiomyocyte cultures or cardiomyocytes co-cultured with untransfected fibroblasts",did not increase
same,increase in spontaneous activity rate,"[2]; CTX 10 nM, co-cultures which included the Kv1.3 transfected fibroblasts",20%
same,increase in spontaneous activity rate,"[2]; CTX 100 nM, cardiomyocyte cultures or cardiomyocytes co-cultured with untransfected fibroblasts",up to 15%
same,increase in spontaneous activity rate,"[2]; CTX 100 nM, co-cultures which included the Kv1.3 transfected fibroblasts",55%
same,beating frequency after CTx application,[3]; control group (naive fibroblasts),did not significantly alter
same,reversibility of the negative chronotropic effect by CTx,"[3]; study group (Kv1.3 transfected fibroblasts), CTx 100 nM (FIG. 18b)",full reversibility
same,activation map after CTX,"[4]; co-culture with non-transfected fibroblasts, five days after seeding, CTX 10 nM (FIG. 12d)",no appreciable change
same,conduction block factor after Charybdotoxin,"[4]; co-cultures including fibroblasts transfected with Kv1.3, n=10 (FIG. 11)",substantially decreased
same,conduction block factor after Charybdotoxin,"[4]; co-cultures including non-transfected fibroblasts, n=9 (FIG. 11)",minimal response
same,conduction block after CTX treatment,"[4]; co-cultures with Kv1.3 transfected fibroblasts, CTX 10 nM (FIG. 7d)",reversal; also recorded: reversed
same,uncoupling effect after CTX treatment,"[4]; co-cultures with Kv1.3 transfected fibroblasts, CTX 100 nM (FIGS. 6f-g)",reversed
Margatoxin (TIINVKCTSPKQCLPPCKAQFGQSAGAKCMNGKCKCYPH),local ERP after administration of Mtx,[5]; control group grafted with naive fibroblasts (n=8),did not change significantly
same,ventricular ERP at the site of cell grafting after Margatoxin,"[5]; one animal grafted with Kv1.3 fibroblasts, basic CL 200 ms (FIG. 19a)",reversed and 100 ms
same,local ventricular ERP at the site of cell transplantation after MTx,[5],117 ± 7.70 ms
same,local ventricular ERP at the site of cell transplantation after MTx,[5]; listed as MTx,117 ± 8 ms
same,local ERP after local application of MTx,"[6]; pig grafted with transfected cells, basic CL drive 400 ms (FIG. 20a)",220 ms
same,ventricular ERP following local application of MTx,[6],near baseline values
same,ventricular ERP following local application of MTx,[6]; listed as MTx,not different from the control sites
"N[C@H](CCCP(=O)(O)O)C(=O)O [APV, D-2-amino-5-phosphonovalerate]",spiking activity in cultured neuronal network,[1],completely abolished
